In patent US20080076772A1, “Anti-Inflammatory Agents” (Pharma Mar S.A. Sociedad Unipersonal, priority 2004, published 2008):
Where two headings read alike, the source gives them in different places.

Key:
Type in all cases: cell-based, human
[1] = tested on: TNF; assay: TNF production by LPS-stimulated monocytes (ELISA); conditions: LPS 100 ng/ml, 16 h incubation
Method: (§1) Monocytes, macrophages and TAM were stimulated with 100 ng/ml LPS to induce maximal cytokine production. Determination of cytokines CCL2, TNF and IL-6 was measured by specific ELISA following the manufacturer's instructions.
(§2) To verify whether the inhibitory effect of ecteinascidin 743 on cytokine production was at the transcriptional level, we analyzed mRNA of CCL2 and TNF from LPS-stimulated macrophages by real time-PCR of CCL2 and TNF transcripts in LPS-stimulated monocytes exposed to ecteinascidin 743.
CCL2 and TNF production by LPS-stimulated monocytes treated with the indicated doses of the anti-tumor agents was also tested. […] […] None of these compounds interfered with the production of TNF.

[2] = tested on: CCL2; assay: CCL2 production by LPS-stimulated monocytes (ELISA)
Method: as §1, with “Supernatants of untreated cells or cells treated with ecteinascidin 743 or other anti-neoplastic agents were collected after 24 h culture and frozen. Monocytes,” for “Monocytes,”
Monocytes and in vitro differentiated macrophages were stimulated with LPS (100 ng/ml). After 1 h LPS stimulation they were treated with ecteinascidin 743. After 16 h incubation, cell supernatants were harvested and tested in ELISA. Under these treatment conditions cell viability was usually >85% for concentrations up to 5 nM. […] Mean inhibition at 5 nM, for monocytes, was 65% (range 50-80%, n=5) and was 50% (range 25-75%, n=5) for in vitro differentiated macrophages. Results are mean+/−SE of 3-5 experiments
Similar results were obtained when monocytes were stimulated with LPS (100 ng/ ml) and treated with ET743 and the other ecteinascidin compounds, although the overall inhibition was less marked compared with the previous experiment where the tumor supernantant was used as CCL2-inducing stimulus.
CCL2 and TNF production by LPS-stimulated monocytes treated with the indicated doses of the anti-tumor agents was also tested. Cell supernatants were harvested after 24 h-incubation and tested in ELISA. […] None of these compounds interfered with the production of TNF.
A major finding of our work is the inhibitory activity of ecteinascidin 743 on the production of inflammatory cytokines. Among various inflammatory cytokines produced by monocyte/macrophages we have tested IL-6, TNF and the chemokine CCL2. CCL2 is a chemokine attracting monocytes and other leukocyte subsets, and is produced both by monocyte/macrophages and several tumour cells. It has been described that ovarian adenocarcinoma cells produce huge amounts of CCL2 and that their levels correlate with the macrophage content of tumours. CCL2 is therefore one of the most important factors regulating monocyte/macrophages recruitment at the tumour site. […] Thus, lower levels of CCL2 by TAM and tumour cells are likely to reduce the number of macrophages recruited at the tumour site. In the above described in vitro experiments ecteinascidin 743 was present throughout the 16-h culture period. We also checked whether a shorter in vitro exposure to ecteinascidin 743 was sufficient to affect cytokine production. Monocytes exposed to ecteinascidin 743 were washed after 1 hour culture and replaced in fresh medium.

[3] = tested on: TNF mRNA; assay: Real time-PCR of TNF transcripts in LPS-stimulated monocytes
From the text: as §2

[4] = tested on: monocytes; assay: Apoptosis of monocytes (Annexin V / PI staining); conditions: monocytes exposed to drug
Method: Cells exposed to treatments were fixed with ethanol 70%, washed in PBS and stained with propidium iodide (PI) solution containing 10 ug/ml PI in PBS and 25 μl RNAse 10,000 units, overnight in the dark. PI incorporation was evaluated on at least 20,000 cells/sample using a FACS Calibur instrument (Becton Dickinson, Sunnyvale, Calif., USA), with a bandpass filter at 620 nm. Apoptosis was detected by staining with AnnexinV and PI. FACS analysis was performed using a bandpass filter 530 and 620 nm for green (AnnexinV) and red (PI) fluorescence respectively, in combination with a […] dichroic mirror.

[5] = tested on: CCL2; assay: CCL2 production induced by exposure of monocytes to tumor cell supernatants; conditions: Homo sapiens, Monocyte; for inhibition at 0.0025 µM: 2.5 nM; for inhibition at 0.005 µM: 5 nM
Method: We also tested five other ecteinascidin compounds (Table 2) for their capacity to inhibit the production of CCL2 by human monocytes in vitro. […] The extent of inhibition of ET637 Derivative A was even more pronouced compared to ET743. In Table 2 is shown that the production of CCL2, induced by exposure of monocytes to tumor cell supernatants, is inhibited up to 80% and 97% at 2.5 and 5 nM, respectively, in two different donors. In the same experiment ET743 inhibited between 30% and 70%.

[6] = tested on: CCL2; assay: CCL2 production by TAM (ELISA); conditions: 16 h, n=4
From the text: Tumour-associated macrophages (TAM) and tumour cells were isolated from the ascitic fluid of patients with diagnosed ovarian adenocarcinoma, admitted to the Clinic of Obstetrics and Gynecology of the University of Milan-Bicocca, S Gerardo Hospital. Cells contained in the ascitic fluid were centrifuged and isolated by differential density gradients of Ficoll and Percoll, and plastic adherence as previously described (see Allavena, P., Peccatori, F., Maggioni, D., Erroi, A., Sironi, M., Colombo, N., Lissoni, A., Galazka, A., Meiers, W., Mangioni, C., et al. Intraperitoneal recombinant gamma-interferon in patients with recurrent ascitic ovarian carcinoma: modulation of cytotoxicity and cytokine production in tumour-associated effectors and of major histocompatibility antigen expression on tumour cells. Cancer Res, 50: 7318-7323, 1990). Purity of TAM and tumour cell preparations was usually>65±10% as defined by morphology and phenotype analysis. Cells were treated with ecteinascidin 743 at the indicated concentrations and cultured for 1-5 days, as specified in figure legends. […]
Monocytes, macrophages and TAM were stimulated with 100 ng/ml LPS to induce maximal cytokine production. Determination of cytokines CCL2, TNF and IL-6 was measured by specific ELISA following the manufacturer's instructions. […]

[7] = read-out: % inhibition of CCL2 production, Donor A
[8] = read-out: % inhibition of CCL2 production, Donor B

## COc1cc2c(cc1O)CCN[C@]21CS[C@@H]2c3c(OC(C)=O)c(C)c4c(c3[C@H](COC1=O)N1[C@@H]2[C@H]2c3c(cc(C)c(OC)c3O)C[C@@H]([C@@H]1O)N2C)OCO4 [ecteinascidin 743]
[1]
  production of TNF by monocytes: never inhibited
[2]; Homo sapiens, Monocyte, 5 nM, LPS 100 ng/ml, 16 h, n=5
  inhibition at 0.005 µM: 65%
[2]; monocytes washed after 1 hour culture with drug, fresh medium
  inhibition of CCL2 production: 57%
[2]; monocytes, 16 h-treatment
  inhibition of CCL2 production: 69%
[3]
  TNF mRNA: unaffected
[4]
  Annexin V staining of dying monocytes (apoptosis): stained positive for Annexin V
[5]; [7]
  inhibition at 0.0025 µM: 30%
  inhibition at 0.005 µM: 70%
[5]; [8]
  inhibition at 0.0025 µM: 60%
  inhibition at 0.005 µM: 70%
[6]; LPS 100 ng/ml
  reduction of LPS-stimulated production of CCL2 by TAM: 50%
[6]; no LPS
  reduction of constitutive production of CCL2 by TAM: 43%
